Measured values: patent US10604512B2, “3-(1H-indol-2-yl)-1H-indazoles and therapeutic uses thereof” (Samumed, LLC, priority 2015, dated 2020)

Tests used:
Assay type in all cases: cell-based
[1] = system: SW480 colon cancer cells; assay: Cell viability assay (CellTiter-Blue) in SW480 colon cancer cells; conditions: Homo sapiens, 96 h, four days; for EC50: CellTiter-Blue; for inhibition at 10 µM: given where EC50 >10 μM, read-out: percent inhibition at 10 μM
Procedure, shortened: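 SW480 cells (~2×10^3 per well) were exposed to compound for four days at 37 °C/5% CO2, using 8-point 1:3 dilutions from 10 μM to 0.0045 μM in duplicate. Viability was read by resazurin reduction (CellTiter-Blue, ~3 h, Ex 560/Em 590 nm). EC50 came from non-linear regression; above 10 μM, percent inhibition at 10 μM is given.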

[2] = system: IL-6; assay: Inhibition of IL-6 in LPS-stimulated THP-1 human monocyte cells (HTRF); conditions: for EC50: IL-6 inhibition, LPS-stimulated THP-1 cells, HTRF; for inhibition at 10 µM: THP-1, printed beside >10 μM EC50, top concentration 10 μM, meaning not given, read-out: percentage in parentheses after EC50 >10
Procedure, shortened: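 THP-1 cells serum-reduced (1% FBS, 24 h), then 5000 cells/well preincubated 2 h with compound (10-point 1:3 series from 10 μM, 0.1% DMSO) before 500 ng/mL LPS for 22 h at 37 °C. Secreted IL-6 quantified by HTRF 665/620 ratio; DMSO-normalised duplicates fitted to four-parameter EC50; above 10 μM, % inhibition at 10 μM given.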

[3] = system: Wnt activity (Sp5-Luc reporter, TCF/LEF binding sites) in SW480 colon carcinoma cells; assay: Screening assay for Wnt activity: Sp5-Luc reporter gene assay in stably transduced SW480 colon carcinoma cells; conditions: Homo sapiens; for EC50: overnight incubation, 10-point curve from 10 μM; for inhibition at 10 µM: given where EC50 >10 μM, read-out: percent inhibition at 10 μM
Procedure, shortened: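 SW480 cells stably transduced with a luciferase reporter driven by an Sp5 promoter of eight TCF/LEF sites were plated at 4,000 cells/well in 1% FBS medium. They were exposed overnight at 37° C to a 10-point 1:3 dilution series from 10 μM (0.1% DMSO). Luminescence was normalized to DMSO for four-parameter EC50, or percent inhibition at 10 μM.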

Row | EC50 [1] | EC50 [2] | EC50 [3] | SMILES | inhibition at 10 µM [2] | inhibition at 10 µM [3] | inhibition at 10 µM [1]
1 | 489 nM | 161 nM | 415 nM | CCNCc1cncc(-c2ccc3[nH]nc(-c4cc5ccccc5[nH]4)c3c2)c1 [Compound 258, N-((5-(3-(1H-Indol-2-yl)-1H-indazol-5-yl)pyridin-3-yl)methyl)ethanamine] | – | – | –
2 | 486 nM | 102 nM | 86 nM | CC(C)CC(=O)Nc1cncc(-c2ccc3[nH]nc(-c4cc5ncccc5[nH]4)c3c2)c1 [Compound 506, N-(5-(3-(1H-Pyrrolo[3,2-b]pyridin-2-yl)-1H-indazol-5-yl)pyridin-3-yl)-3-methylbutanamide] | – | – | –
3 | > 10000 nM | > 10000 nM | 1400 nM | CCC(=O)Nc1cncc(-c2ccc3[nH]nc(-c4cc5c(N6CCCCC6)cccc5[nH]4)c3c2)c1 [Compound 169, N-(5-(3-(4-(Piperidin-1-yl)-1H-indol-2-yl)-1H-indazol-5-yl)pyridin-3-yl) propionamide] | 41.7% | – | 10.4%
4 | > 10000 nM | > 10000 nM | 185 nM | CC(C)(C)CC(=O)Nc1cncc(-c2ccc3[nH]nc(-c4cc5ccccc5[nH]4)c3c2)c1 [Compound 268, N-(5-(3-(1H-Indol-2-yl)-1H-indazol-5-yl)pyridin-3-yl)-3,3-dimethylbutanamide] | 0% | – | 12.4%
5 | > 10000 nM | 1730 nM | 675 nM | c1ccc2[nH]c(-c3n[nH]c4ccc(-c5cncc(CN6CCCCC6)c5)cc34)cc2c1 [Compound 267, 3-(1H-Indol-2-yl)-5-(5-(piperidin-1-ylmethyl)pyridin-3-yl)-1H-indazole] | – | – | 7.8%
6 | > 10000 nM | 233 nM | 160 nM | CCC(=O)Nc1cncc(-c2ccc3[nH]nc(-c4cc5ccccc5[nH]4)c3c2)c1 [Compound 253, N-(5-(3-(1H-Indol-2-yl)-1H-indazol-5-yl)pyridin-3-yl)propionamide] | – | – | 13.6%
7 | 180 nM | 977 nM | 75 nM | CC(C)CC(=O)Nc1cncc(-c2ccc3[nH]nc(-c4cc5c(-c6ccsc6)cccc5[nH]4)c3c2)c1 [Compound 282, 3-Methyl-N-(5-(3-(4-(thiophen-3-yl)-1H-indol-2-yl)-1H-indazol-5-yl)pyridin-3-yl)butanamide] | – | – | –
8 | > 10000 nM | > 10000 nM | 685 nM | O=C(Nc1cncc(-c2ccc3[nH]nc(-c4cc5ccccc5[nH]4)c3c2)c1)C1CCC1 [Compound 273, N-(5-(3-(1H-Indol-2-yl)-1H-indazol-5-yl)pyridin-3-yl) cyclobutanecarboxamide] | 44.3% | – | 17.8%

The next lines start with the compound.

Row | SMILES | EC50 [1] | EC50 [2] | EC50 [3] | inhibition at 10 µM [2] | inhibition at 10 µM [3] | inhibition at 10 µM [1]
9 | CN1CCN(c2cccc3[nH]c(-c4n[nH]c5ccc(-c6cncc(NC(=O)C7CCCC7)c6)cc45)cc23)CC1 [Compound 246, N-(5-(3-(4-(4-Methylpiperazin-1-yl)-1H-indol-2-yl)-1H-indazol-5-yl)pyridin-3-yl)cyclopentanecarboxamide] | 2990 nM | 186 nM | 1240 nM | – | – | –
10 | Fc1ccc(-c2cccc3[nH]c(-c4n[nH]c5ccc(C6=CCNCC6)cc45)cc23)cc1 [Compound 550, 3-(4-(4-Fluorophenyl)-1H-indol-2-yl)-5-(1,2,3,6-tetrahydropyridin-4-yl)-1H-indazole] | 3900 nM | > 10000 nM | > 10000 nM | 33.7% | 48% | –
11 | CN1CCN(c2cccc3[nH]c(-c4n[nH]c5ccc(-c6cncc(CN7CCCCC7)c6)cc45)cc23)CC1 [Compound 239, 3-(4-(4-Methylpiperazin-1-yl)-1H-indol-2-yl)-5-(5-(piperidin-1-ylmethyl)pyridin-3-yl)-1H-indazole] | > 10000 nM | 1150 nM | 4970 nM | – | – | 51.7%
12 | O=C(Nc1cncc(-c2ccc3[nH]nc(-c4cc5c(-c6ccccn6)cccc5[nH]4)c3c2)c1)c1ccccc1 [Compound 151, N-(5-(3-(4-(Pyridin-2-yl)-1H-indol-2-yl)-1H-indazol-5-yl)pyridin-3-yl) benzamide] | > 10000 nM | > 10000 nM | 150 nM | 46.9% | – | 17.7%
13 | Cc1ncc(-c2ccc3[nH]nc(-c4cc5c(-c6ccncc6)cccc5[nH]4)c3c2)n1C [Compound 601, 5-(1,2-Dimethyl-1H-imidazol-5-yl)-3-(4-(pyridin-4-yl)-1H-indol-2-yl)-1H-indazole] | 5960 nM | 4170 nM | > 10000 nM | – | 32.4% | –
14 | CN(C)Cc1cncc(-c2ccc3[nH]nc(-c4cc5c(-c6cccc(F)c6)cccc5[nH]4)c3c2)c1 [Compound 13, 1-(5-(3-(4-(3-Fluorophenyl)-1H-indol-2-yl)-1H-indazol-5-yl)pyridin-3-yl)-N,N-dimethylmethanamine] | 494 nM | 36 nM | > 10000 nM | – | 22.5% | –
15 | CS(=O)(=O)NCc1cc(F)cc(-c2cccc3[nH]c(-c4n[nH]c5ccc(-c6cncnc6)cc45)cc23)c1 [Compound 503, N-(3-Fluoro-5-(2-(5-(pyrimidin-5-yl)-1H-indazol-3-yl)-1H-indol-4-yl)benzyl) methanesulfonamide] | 3170 nM | 910 nM | 205 nM | – | – | –
16 | CC(C)(C)C(=O)Nc1cncc(-c2ccc3[nH]nc(-c4cc5c(-c6cc(F)cc(CNS(C)(=O)=O)c6)cccc5[nH]4)c3c2)c1 [Compound 484, N-(5-(3-(4-(3-Fluoro-5-(methylsulfonamidomethyl)phenyl)-1H-indol-2-yl)-1H-indazol-5-yl)pyridin-3-yl)pivalamide] | > 10000 nM | > 10000 nM | 115 nM | 24.2% | – | 37.5%
17 | c1ccc(-c2cccc3[nH]c(-c4n[nH]c5ccc(-c6cncnc6)cc45)cc23)nc1 [Compound 167, 3-(4-(Pyridin-2-yl)-1H-indol-2-yl)-5-(pyrimidin-5-yl)-1H-indazole] | > 10000 nM | 979 nM | 1220 nM | – | – | 10.9%
18 | CCNCc1cncc(-c2ccc3[nH]nc(-c4cc5c(-c6ccncc6)cccc5[nH]4)c3c2)c1 [Compound 118, N-((5-(3-(4-(Pyridin-4-yl)-1H-indol-2-yl)-1H-indazol-5-yl)pyridin-3-yl)methyl)ethanamine] | 528 nM | 137 nM | 1440 nM | – | – | –
19 | O=C(Nc1cncc(-c2ccc3[nH]nc(-c4cc5c(-c6ccccc6F)cccc5[nH]4)c3c2)c1)C1CCCC1 [Compound 78, N-(5-(3-(4-(2-Fluorophenyl)-1H-indol-2-yl)-1H-indazol-5-yl)pyridin-3-yl) cyclopentanecarboxamide] | > 10000 nM | > 10000 nM | 1060 nM | 54.1% | – | 8.3%
20 | O=C(Nc1cncc(-c2ccc3[nH]nc(-c4cc5c(N6CCCCC6)cccc5[nH]4)c3c2)c1)C1CC1 [Compound 188, N-(5-(3-(4-(Piperidin-1-yl)-1H-indol-2-yl)-1H-indazol-5-yl)pyridin-3-yl) cyclopropanecarboxamide] | > 10000 nM | 5370 nM | 195 nM | – | – | 29.5%
21 | O=C(Nc1cncc(-c2ccc3[nH]nc(-c4cc5ncccc5[nH]4)c3c2)c1)C1CCC1 [Compound 525, N-(5-(3-(1H-Pyrrolo[3,2-b]pyridin-2-yl)-1H-indazol-5-yl)pyridin-3-yl) cyclobutanecarboxamide] | 547 nM | 24 nM | 109 nM | – | – | –
22 | Fc1ccc(-c2cccc3[nH]c(-c4n[nH]c5ccc(-c6cncc(CN7CCCC7)c6)cc45)cc23)cc1 [Compound 42, 3-(4-(4-Fluorophenyl)-1H-indol-2-yl)-5-(5-(pyrrolidin-1-ylmethyl)pyridin-3-yl)-1H-indazole] | > 10000 nM | > 10000 nM | 845 nM | 47.8% | – | 42.4%
23 | O=C(Nc1cncc(-c2ccc3[nH]nc(-c4cc5c(-c6ccncc6)cccc5[nH]4)c3c2)c1)C1CCCCC1 [Compound 135, N-(5-(3-(4-(Pyridin-4-yl)-1H-indol-2-yl)-1H-indazol-5-yl)pyridin-3-yl) cyclohexanecarboxamide] | > 10000 nM | 9900 nM | 4400 nM | – | – | 12.2%
24 | FC1(F)CCN(Cc2cncc(-c3ccc4[nH]nc(-c5cc6c(N7CCCCC7)cccc6[nH]5)c4c3)c2)C1 [Compound 194, 5-(5-((3,3-Difluoropyrrolidin-1-yl)methyl)pyridin-3-yl)-3-(4-(piperidin-1-yl)-1H-indol-2-yl)-1H-indazole] | 4430 nM | > 10000 nM | 750 nM | 29.2% | – | –
